Reference: patent US20030109462A1, “Novel naringenin derivatives and use thereof” (Japan Science and Technology Corporation, priority 2001, published 2003)
“Also recorded” adds a separate entry of the source.

What was measured:
[1] = test system: cowpea weevil (C. maculatus); test: Insecticidal test on artificial beans, cowpea weevil; type: in vivo, Callosobruchus maculatus; conditions: cowpea weevils
Protocol: (§1) These two species of bean weevils were cultured in the same way. In a 9 cm Petri dish containing 300 mungbean seeds, was placed ten adults of bean weevil and egg production was induced. After egg production, the adults were removed and cultured in a thermostatically controlled incubator at 60% humidity and 30° C. After 25 to 30 days from the egg production, the adults emerged. The emerged adults were used in the test for insecticidal activity.
To 1 g of the cotyledon powder of mungbean was added a small quantity of water to make bean-like solid material (about 0.25 g), which was freeze-dried. This material was called artificial bean (mungbean 100%) and used in the test. […]
One artificial seed each of artificial beans in this test was placed in a 9 cm Petri dish, on which the adults of azuki bean weevils or cowpea weevils shortly after the emergence were put and induced to lay eggs. […] The number of eggs laid on the artificial beans was recorded, and the number of the adults that emerged from the artificial beans was continuously recorded for up to 50 days after the egg production to calculate the rate of emergence. The artificial beans on which no emergence was recorded by the 50th day after eggs were laid were split with a pair of forceps and checked as to whether there was any larvae in the artificial seed. […]

[2] = test system: two species of bean weevils: azuki bean weevil (Callosobruchus chinensis) and cowpea weevil (C. maculatus); test: Insecticidal test on artificial beans, one result stated for both bean weevil species; type: in vivo
Protocol: Two species of bean weevils, i.e., azuki bean weevil (Callosobruchus chinensis) and cowpea weevil (C. maculatus) were employed. Cowpea weevil was obtained from Kasetsart University, Thailand, under an import license from the Plant Quarantine Office of Japan and subcultured.
as §1
(§2) To 1 g of the cotyledon powder of mungbean was added a small quantity of water to make bean-like solid material (about 0.25 g), which was freeze-dried. This material was called artificial bean (mungbean 100%) and used in the test.
(§3) The artificial beans (mungbean 100%) were placed in a 9 cm Petri dish, on which was then put the adults shortly after their emergence and eggs were laid on the artificial seeds. The culture environment was fixed at a temperature of 30° C. and a humidity of 60%. After a lapse of 25 to 30 days from the egg production, the adults normally emerged from the artificial beans (mungbean 100%). Thus, it became clear that the bean weevils can utilize the artificial beans for their egg production and emergence, and it was confirmed that the artificial beans are useful in a test of insecticidal activity for bean weevils.
(§4) One artificial seed each of artificial beans in this test was placed in a 9 cm Petri dish, on which the adults of azuki bean weevils or cowpea weevils shortly after the emergence were put and induced to lay eggs. After egg production, the adults were cultured in an incubator fixed at 30° C. and 60% humidity. The number of eggs laid on the artificial beans was recorded, and the number of the adults that emerged from the artificial beans was continuously recorded for up to 50 days after the egg production to calculate the rate of emergence. The artificial beans on which no emergence was recorded by the 50th day after eggs were laid were split with a pair of forceps and checked as to whether there was any larvae in the artificial seed. This experiment, the insecticidal test on the artificial beans, was repeated 4 times.
(§5) The value represented by the weight (g) of the artificial beans which can be prepared from the total weight of rice bean seed powder according to the minimum lethal concentration was regarded as the total activity of the rice bean seed powder. (The value derived by dividing the total weight of rice bean seed powder by the minimum lethal concentration)
(§6) Moreover, the total activity for 1 g of the rice bean seed powder was calculated as specific activity (units/g).
(§7) Insecticidal activity was observed by calculating total activity and specific activity under the same conditions and following the same procedure as in Experiment 1, except that the extract obtained in each step of purification was used in place of the seed powder of rice bean.

[3] = test system: larva of giant tobacco budworm (Heliothis obsoleta Fabricius); conditions: cited from earlier work
[4] = test system: azuki bean weevil (Callosobruchus chinensis); test: Insecticidal test on artificial beans, azuki bean weevil; type: in vivo
Protocol: as §1, §2, §3, §4, §5, §6, §7

[5] = Table 2, purification without silica gel, two species of bean weevils
[6] = Table 1, steps from silica gel chromatography on, activity to azuki bean weevils

## O=C1C[C@H](c2ccc(O)cc2)Oc2cc(O)c([C@@H]3O[C@H](CO)[C@@H](O)[C@H](O)[C@H]3O)c(O)c21 [6-C-β-D-glucosyl-(R)-naringenin]
[1]
  insecticidal activity (in words): insecticidally active
[2]; [5]
  Specific activity: 1000.0 units/g
  Total activity: 8.0 units
[2]; artificial beans containing 0.05%, 0.1%, or 0.2% of the 5th peak, both species
  rate of emergence: low
[2]; artificial beans containing 0.1% of the 5th peak, two species
  rate of emergence: 0%
[2]; artificial beans containing 0.2% of the 5th peak, two species
  rate of emergence: 0%
[2]; azuki bean weevils and cowpea weevils
  insecticidal activity (in words): insecticidal substance active to azuki bean weevils and cowpea weevils
[2]; concentration in artificial beans required for emergence rate 0%, both weevil species
  minimum lethal concentration: 0.1%

## O=c1cc(-c2ccc(O)c(O)c2)oc2cc(O)c([C@@H]3O[C@H](CO)[C@@H](O)[C@H](O)[C@H]3O)c(O)c12 [6-C-β-D-glucosyl-luteolin]
[3]
  insecticidal effect (in words): insecticidal effect

## O=C1C[C@H](c2ccc(O)cc2)Oc2c1c(O)cc(O)c2[C@@H]1O[C@H](CO)[C@@H](O)[C@H](O)[C@H]1O [8-C-β-D-glucosyl-(R)-naringenin]
[1]
  insecticidal activity (in words): only to azuki bean weevils
[4]; [6]
  Specific activity: 1000.0 units/g
  Total activity: 2.0 units
[4]; artificial beans containing 0.05%, 0.1%, or 0.2% of the 7th peak, azuki bean weevils
  rate of emergence: low
[4]; artificial beans containing 0.1% of the 7th peak
  rate of emergence: 0%
[4]; artificial beans containing 0.2% of the 7th peak
  rate of emergence: 0%
[4]; azuki bean weevils
  insecticidal activity (in words): insecticidal substance active to azuki bean weevils; also recorded: shows insecticidal activity
[4]; concentration in artificial beans required for emergence rate 0%, azuki bean weevils
  minimum lethal concentration: 0.1%
